Test results as given in patent US20160199393A1, “METHODS OF TREATING BRAIN ISCHEMIA OR HYPOXIA” (China Medical University, priority 2015, published 2016).

Key:
[1] = tested on: xCT; experiment: xCT mRNA and protein levels in homogenised ischemic brain tissue of rats with CIR; format: in vivo, rat; conditions: pretreatment 150 mg/kg, 12 h after reperfusion
Experimental: Eight to ten-week-old male adult male Sprague-Dawley rats, C57BL/6J mice and xCT^−/− mice were anesthetized with 1.5% isoflurane in oxygen, allowed breathing spontaneously, and body temperature was maintained at 37° C. with a heat lamp during surgery for right middle cerebral artery ligation and bilateral common carotid artery clamping as previously described (Chen S T, Hsu C Y, Hogan E L, Maricq H, Balentine J D. A model of focal ischemic stroke in the rat: reproducible extensive cortical infarction. Stroke; a journal of cerebral circulation. 1986; 17(4):738-43, which is incorporated here by reference). Animals were subjected to transient cerebral ischemia for 90 min in rats and 2 h in mice.
Q-PCR analysis was performed as described previously in Hsieh (Hsieh C H, Kuo J W, Lee Y J, Chang C W, Gelovani Liu R S. Construction of mutant TKGFP for real-time imaging of temporal dynamics of HIF-1 signal transduction activity mediated by hypoxia and reoxygenation in tumors in living mice. J Nucl Med. 2009; 50(12):2049-57, which is incorporated here by reference). […] The cDNA was then used for real time PCR quantification of mRNAs using the gene specific forward and reverse primers. […]
To test this hypothesis, the mRNA and protein levels of xCT in ischemic brains with or without 2-methoxyestradiol (2ME2), an inhibitor of HIF-1, at 12 h after CIR were first determined. […]

[2] = tested on: mouse xCT promoter; experiment: Mouse xCT promoter luciferase reporter assay in neurons and astrocytes; format: cell-based; conditions: 24 h incubation, DFO 100 μM, CoCl2 50 μM
From the text: The multiple cloning sites (MCS) of pTA-Luc vector (Clontech) was inserted with the cDNA fragment bearing −2000 to +1 bp mouse or human xCT promoter to drive the expression of firefly luciferase gene as pTA-mxCTp-Luc or pTA-hxCTp-Luc. The mutant of hypoxia response element on mouse or human xCT promoter was generated in the pTA-mxCTp-Luc or pTA-hxCTp-Luc as template by Quick Change Site-directed Mutagenesis Kit (Stratagene).
Cells were cotransfected with xCT promoter-driven reporter constructs with or without HRE mutation and Renilla reporter plasmids. At 24 h after transfection, the luciferase activity was examined by a dual luciferase reporter assay system (Promega) according to the manufacturers instructions, and firefly luciferase activity was normalized to the control renilla activity included in the kit. Luciferase activities are expressed as fold-increase over the luciferase activities in un-stimulated conditions.
To test whether the xCT promoter would respond to HIF activation, the mouse xCT 2000-bp promoter was isolated and fused to firefly luciferase coding sequences for use in transient transfection assays with neurons and astrocytes. Normoxic neurons and astrocytes were treated with OGDR or incubated with desferrioxamine (DFO; 100 μM) or cobalt chloride (CoCl2; 50 μM) for 24 h. The DFO and CoCl2 mimics hypoxia by inducing transcription from HIF-1-dependent genes.

[3] = tested on: NMDAR; conditions: for hyperfunction of NMDAR (binding radioactivity of 18F-FSAG): WT cortical cells, OGDR, 24 h after reperfusion, 10 μM (SAS 500 μM)
[4] = target: T1, NMDAR (Mus musculus, UniProt P35438); format: in vivo; conditions: WT and xCT−/− mice with CIR, 12 h after reperfusion, compared to vehicle
T1 construct: from tissue; host or cells: cerebral hemispheres of WT (C57BL/6J) and xCT-/- mice after CIR, in vivo/ex vivo
Experimental: Animals received 29.6 MBq/kg of ^18F-FSAG in 100 μl of PBS via lateral tail vein injection, and then were euthanized by CO2/O2 asphyxiation at 30 min after injection. After sacrifice, selected tissues of interest were then removed and weighed, and the radioactivity was measured using a γ-counter. The percentage injected dose per gram (% ID/g) was then calculated.
To determine in vivo activation of NMDAR, mice were injected with ^18F-FSAG at 12 h after reperfusion for ex vivo biodistribution studies and positron emission tomography (PET) imaging studies.

[5] = tested on: SLC7A11 (xCT) mRNA; experiment: SLC7A11 mRNA level (Q-PCR) in primary cortical cells exposed to OGDR; format: cell-based, mouse; conditions: pretreatment with YC-1 5 μM
[6] = tested on: WT cortical cells; experiment: Lactate dehydrogenase (LDH) level in WT cortical cells after OGD/OGDR; format: cell-based, mouse; conditions: OGDR, 24 h after reperfusion, 10 μM (SAS 500 μM)
Experimental: (§1) Primary cortical cells were prepared from cerebral cortices of wild-type C57BL/6J or homozygote xCT^−/− mouse embryos in embryonic day 17 as previously described with modification (Goldberg M P, Choi D W. Combined oxygen and glucose deprivation in cortical cell culture: calcium-dependent and calcium-independent mechanisms of neuronal injury. The Journal of neuroscience: the official journal of the Society for Neuroscience, 1993; 13(8):3510-24, which is incorporated here by reference).
The LDH assay was carried out at 24 hours after reperfusion. *P<0.01 compared to drugs-untreated cells (Un), one-way ANOVA. Error bars denote the standard deviation among triplicate experiments.

[7] = tested on: astrocytes; experiment: Annexin V flow cytometric apoptosis assay after OGDR, astrocytes; format: cell-based, mouse; conditions: WT cortical cells, 24 h after reperfusion, 10 μM (SAS 500 μM)
Experimental: (§2) Annexin V staining was performed to determine cell apoptosis using the Annexin V-FITC Apoptosis Detection Kit (Sigma-Aldrich) for 10 min at room temperature according to the manufacturers instructions, and then flow cytometric analysis was performed.
(§3) The three-color staining flow cytometric assay using allophycocyanin-microtubule-associated protein 2 (MAP2) for neuron staining, phycoerythrin (PE)-GFAP for astrocyte staining and FITC-annexin V for apoptotic cell staining was performed to count the numbers of neurons, astrocytes, and apoptotic cells. FIGS. 21A and […] show the results of apoptosis in wild type (WT) and xCT^−/− cortical cells treated with OGDR at 24 h after reperfusion. *P<0.01 compared to WT without OGDR, Student's t-test. ^#P<0.01 compared to WT with OGDR, Student's t-test. From FIGS. 21A and 21B it was observed that that smaller numbers of apoptotic cells were present in xCT^−/− neurons and astrocytes after OGDR treatment.

[8] = tested on: neurons; experiment: Annexin V flow cytometric apoptosis assay after OGDR, neurons; format: cell-based, mouse; conditions: WT cortical cells, 24 h after reperfusion, 10 μM (SAS 500 μM)
Experimental: as §2, §3

[9] = target: T2, system xc− (Mus musculus, UniProt Q9WTR6); experiment: Extracellular glutamate content in WT cortical cells exposed to OGDR; format: cell-based; conditions: 24 h after reperfusion, 10 μM (SAS 500 μM)
T2 construct: endogenous in cells; host or cells: primary cortical cells from E17 wild-type C57BL/6J mouse embryos, exposed to OGDR
T2 sequence (Q9WTR6 1-502): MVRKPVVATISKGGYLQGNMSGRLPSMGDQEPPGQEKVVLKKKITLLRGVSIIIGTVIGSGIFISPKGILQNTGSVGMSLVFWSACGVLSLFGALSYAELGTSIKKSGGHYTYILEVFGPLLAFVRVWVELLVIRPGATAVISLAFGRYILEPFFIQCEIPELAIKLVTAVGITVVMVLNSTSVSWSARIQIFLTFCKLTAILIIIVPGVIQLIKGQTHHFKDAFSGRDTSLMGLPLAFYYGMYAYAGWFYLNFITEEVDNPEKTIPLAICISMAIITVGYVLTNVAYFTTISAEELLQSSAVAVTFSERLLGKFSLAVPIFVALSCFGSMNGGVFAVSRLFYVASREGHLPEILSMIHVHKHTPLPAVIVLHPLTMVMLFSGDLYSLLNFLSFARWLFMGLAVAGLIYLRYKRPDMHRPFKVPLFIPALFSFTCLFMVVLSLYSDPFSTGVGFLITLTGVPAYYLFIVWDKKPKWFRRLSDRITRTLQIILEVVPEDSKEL
T2 sequence (P10852 1-526 partner): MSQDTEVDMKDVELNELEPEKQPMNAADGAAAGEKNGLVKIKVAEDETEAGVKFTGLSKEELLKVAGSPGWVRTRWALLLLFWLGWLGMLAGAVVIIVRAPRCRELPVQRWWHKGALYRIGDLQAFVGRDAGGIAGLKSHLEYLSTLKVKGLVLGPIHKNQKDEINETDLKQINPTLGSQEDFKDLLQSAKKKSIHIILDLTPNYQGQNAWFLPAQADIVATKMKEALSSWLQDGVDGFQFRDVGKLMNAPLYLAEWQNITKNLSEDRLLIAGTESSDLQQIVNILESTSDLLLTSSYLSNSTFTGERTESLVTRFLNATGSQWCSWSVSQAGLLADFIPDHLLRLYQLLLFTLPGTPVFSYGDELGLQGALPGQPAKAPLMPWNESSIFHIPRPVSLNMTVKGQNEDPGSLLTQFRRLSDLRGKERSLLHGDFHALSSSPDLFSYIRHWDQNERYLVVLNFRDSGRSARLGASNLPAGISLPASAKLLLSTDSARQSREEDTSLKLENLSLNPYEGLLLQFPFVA
Experimental: as §1

[10] = target: T3, system xc− (Homo sapiens, UniProt Q9UPY5); conditions: Dixon et al., eLife 2014; cited from earlier work
T3 sequence (Q9UPY5 1-501): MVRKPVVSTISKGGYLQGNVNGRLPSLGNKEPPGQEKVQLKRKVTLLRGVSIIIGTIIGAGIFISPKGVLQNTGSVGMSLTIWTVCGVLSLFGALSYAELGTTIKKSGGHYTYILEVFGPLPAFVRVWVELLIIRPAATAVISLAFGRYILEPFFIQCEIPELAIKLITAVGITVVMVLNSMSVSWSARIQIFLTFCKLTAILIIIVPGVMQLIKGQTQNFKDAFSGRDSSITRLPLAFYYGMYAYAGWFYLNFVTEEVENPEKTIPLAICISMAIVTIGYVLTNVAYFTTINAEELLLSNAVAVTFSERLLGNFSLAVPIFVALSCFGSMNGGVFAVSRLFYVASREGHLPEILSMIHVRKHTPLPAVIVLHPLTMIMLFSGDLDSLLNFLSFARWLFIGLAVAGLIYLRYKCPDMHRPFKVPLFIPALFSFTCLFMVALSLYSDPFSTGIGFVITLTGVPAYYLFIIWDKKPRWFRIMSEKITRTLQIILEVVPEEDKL
T3 sequence (P08195 1-529 partner): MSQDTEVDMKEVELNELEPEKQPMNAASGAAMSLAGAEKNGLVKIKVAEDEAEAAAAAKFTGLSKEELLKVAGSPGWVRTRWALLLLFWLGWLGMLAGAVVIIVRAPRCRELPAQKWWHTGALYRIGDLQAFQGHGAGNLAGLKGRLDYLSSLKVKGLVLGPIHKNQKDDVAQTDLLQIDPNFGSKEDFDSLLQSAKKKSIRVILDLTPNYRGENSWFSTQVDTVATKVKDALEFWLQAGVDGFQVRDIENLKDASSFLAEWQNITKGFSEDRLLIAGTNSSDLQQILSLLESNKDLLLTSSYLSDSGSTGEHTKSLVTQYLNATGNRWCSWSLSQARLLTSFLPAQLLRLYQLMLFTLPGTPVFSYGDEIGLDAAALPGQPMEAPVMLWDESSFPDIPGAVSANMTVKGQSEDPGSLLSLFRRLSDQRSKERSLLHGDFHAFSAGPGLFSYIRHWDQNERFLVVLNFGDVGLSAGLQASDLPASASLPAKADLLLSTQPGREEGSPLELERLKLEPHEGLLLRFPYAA

SMILES: COc1cc2c(cc1O)CC[C@@H]1[C@@H]2CC[C@]2(C)[C@@H](O)CC[C@@H]12 [2ME2, 2-methoxyestradiol]
- xCT mRNA expression level [1]: significantly inhibited
- xCT protein expression level [1]: significantly inhibited

SMILES: [Cl][Co][Cl] [CoCl2, cobalt chloride]
- transcriptional activation of xCT (reporter activity of mouse xCT promoter) [2]: increased

SMILES: CC(=O)N(O)CCCCCNC(=O)CCC(=O)N(O)CCCCCNC(=O)CCC(=O)N(O)CCCCCN [DFO, desferrioxamine]
- transcriptional activation of xCT (reporter activity of mouse xCT promoter) [2]: increased

SMILES: C[C@]12N[C@H](Cc3ccccc31)c1ccccc12 [MK801]
- binding of 18F-FSAG ([3]; cortical cells, pretreatment 10 μM): blocked
- 18F-FSAG accumulation in ipsilateral and contralateral hemispheres [4]: significant reduction

SMILES: OCc1ccc(-c2nn(Cc3ccccc3)c3ccccc23)o1 [YC-1]
- OGDR-increased SLC7A11 mRNA expression [5]: inhibited

SMILES: CCOc1ccccc1-n1c(C(C)N2CCN(C(=O)COc3ccc(Cl)cc3)CC2)nc2ccccc2c1=O (stereo not drawn) [erastin]
- LDH levels [6]: inhibited
- apoptosis in astrocytes [7]: inhibited
- apoptosis in neurons [8]: inhibited
- OGDR-induced glutamate release (extracellular glutamate content) [9]: inhibited
- hyperfunction of NMDAR (binding radioactivity of 18F-FSAG) [3]: inhibited

SMILES: Cc1ccc(NC(=O)c2ccc(CN3CCN(C)CC3)cc2)cc1Nc1nccc(-c2cccnc2)n1 [imatinib]
- system xc− inhibition activity [10]: lacking system xc^− inhibition activity

SMILES: CNC(=O)c1cc(Oc2ccc(NC(=O)Nc3ccc(Cl)c(C(F)(F)F)c3)c(F)c2)ccn1 [regorafenib]
- LDH levels [6]: inhibited
- apoptosis in astrocytes [7]: inhibited
- apoptosis in neurons [8]: inhibited
- OGDR-induced glutamate release (extracellular glutamate content) [9]: inhibited
- hyperfunction of NMDAR (binding radioactivity of 18F-FSAG) [3]: inhibited
